This note sets out measurements from US20250288704A1, “CXCR4-LIGANDS FOR DIAGNOSTIC AND THERAPEUTIC USE AND PRECURSORS THEREOF” (priority 2021, published 2025).

The subject of data set [1] is CXCR4-expressing Chem_1 cells. Kind of data set: Determination of internalization, dual tracer with 125I-Fc-131. Particulars: 2 h, 125I-labeled. It counts as cell-based. An outline of the steps:
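Receptor blockade used AMD3100 (1 mM stock) versus medium-treated wells, triplicate per time point, in Chem_1 cells cultured at 37 °C in DMEM-F12/10% FBS. Activity of supernatant, surface-bound and internalized (1 M NaOH) fractions measured by γ-counter, corrected for non-specific uptake and normalised to standard ligand.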

Data set [2] can be described thus: Octanol/PBS partition coefficient (logD7.4). It counts as physicochemical. Particulars: n-octanol/PBS pH 7.4, radiolabeled compound. As for the experimental part:
The tubes were vortexed at maximum speed for 3 min to ensure equilibrium before centrifugation at 15.000×g for 5 min on a Biofuge 15 from Heraeus Holding GmbH (Osterode, Germany). An aliquot of 100 μL of each fraction was measured in the γ-counter and the log D7.4 calculated as follows: […]

Data set [3] concerns U2932 cells. Particulars: 10, 20, 40, 100 nM, 24-96 h.
Description: (§1) Two cell lines were selected for the respective experiments. The B-cell lymphoma cell line U2932 and the higher CXCR4 expressing lymphoblast-like Raji cell line. Both cell lines were incubated with the PDC for 24, 48, 72 and 96 hours in varying concentrations of 0 (Blank), 10, 20, 40 and 100 nM.
In data set [4] the test system is U2932 cells. Particulars: 72 h, increasing amounts of PDC.
Description: For that purpose, cells were fixed, permeabilized and treated with propidium iodide. The number of cells in the G0/G1-, S— and G2/M-phase was then measured with regards to the amount of PDC used.
The target in another data set is CXCR4 (Homo sapiens, UniProt P61073). Kind of data set: Determination of IC50: competition with 125I-Fc-131 on CXCR4-positive Jurkat cells.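 Note: test compound at 10^−5 to 10^−11 M competed for 2 h at 8 °C with the radioligand on 400,000 cells per well, bound versus free activity measured by γ-counting.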 It counts as binding. Also on record: CXCR4-positive Jurkat T lymphocyte cells were grown in Gibco's RPMI 1640 GlutaMAX medium; endogenous in cells; host or cells: Jurkat T lymphocyte cells (whole cells in suspension, 400.000 per tube).
Chain of CXCR4 (P61073 whole entry): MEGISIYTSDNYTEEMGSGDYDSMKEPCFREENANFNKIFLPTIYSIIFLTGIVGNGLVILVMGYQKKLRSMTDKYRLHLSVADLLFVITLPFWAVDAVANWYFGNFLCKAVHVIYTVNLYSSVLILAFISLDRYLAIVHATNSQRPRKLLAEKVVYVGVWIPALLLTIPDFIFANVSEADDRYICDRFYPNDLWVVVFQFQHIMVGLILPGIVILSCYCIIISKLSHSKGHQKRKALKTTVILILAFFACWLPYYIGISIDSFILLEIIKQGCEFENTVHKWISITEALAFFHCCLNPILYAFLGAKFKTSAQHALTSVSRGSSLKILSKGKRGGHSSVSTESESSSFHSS

Description for Raji cells: as §1

For orientation: IC50 means the concentration that gives 50% inhibition. Consider `CC[C@H](C)[C@@H]([C@@H](CC(=O)N1CCC[C@H]1[C@H](OC)[C@@H](C)C(=O)N[C@H](C)C(O)c1ccccc1)OC)N(C)C(=O)[C@@H](NC(=O)[C@H](C(C)C)N(C)C(=O)OCc1ccc(NC(=O)[C@H](CCCNC(N)=O)NC(=O)[C@@H](NC(=O)CCCCCN2C(=O)CC(SCC[C@@H](N)C(=O)NC(CCCNC(=N)N)C(=O)N[C@H](C)C(=O)Nc3ccc(C(=O)NCCC[C@@H]4C(=O)N[C@@H](CCCNC(=N)N)C(=O)N[C@H](Cc5ccc6ccccc6c5)C(=O)NCC(=O)N[C@@H](Cc5ccc(O)cc5)C(=O)N4C)cc3)C2=O)C(C)C)cc1)C(C)C` (stereo partly shown) [CXCR4-MMAE-2], for which, in data set [1], the “Internalization 2 h [% of bound peptide]” value is recorded as 27.9 ± 1.14 % of bound peptide. Further, in data set [2], the logD7.4 is 1.11 ± 0.08 (5). In the data set on Raji cells (96 h, 10, 20 and 40 nM, Raji vs U2932), the “fraction of dead cells” value is given as “considerably higher fraction of dead Raji cells compared to the U2932 cells”. Further, the cell viability result is recorded as “decreased cell viabilities” in the data set with Raji cells (Raji cells, 10, 20, 40, 100 nM, 24-96 h) and “decreased cell viabilities” in the data set with U2932 cells [3]. The “cells in G2/M-phase” value in the data set with U2932 cells [4] was “higher number of cells stuck in the G2/M-phase”. Besides, at CXCR4, the IC50 came to 42.6 ± 8.3 nM.
